Test results as given in patent US20110319392A1, “Thiazole Sulfonamide And Oxazole Sulfonamide Kinase Inhibitors” (priority 2009, published 2011).
Where a name gives a salt, the structure may show the parent alone.

What was measured:
BT474 tumor cells = experiment: Cell growth inhibition assay (CellTiter-Glo), BT474; format: cell-based, Human; details: 3 days incubation
Description: (§1) Human breast tumor cells (BT474) were cultured in RPMI (Mediatech […]), containing 10% FBS (JRH Biosciences 12176) and 1% penicillin-streptomycin (Invitrogen 15140). Human head and neck tumor cells (HN5) were cultured in high glucose DMEM (Mediatech 50-013-PB) containing 10% FBS and 1% penicillin-streptomycin. Human colon tumor cells (Colo205) were cultured in RPMI (Mediatech 50-020-PB) containing 10% FBS and 1% penicillin-streptomycin. Human melanoma cancer cells (SK-MEL-28) were cultured in EMEM with nonessential amino acids (Mediatech 50-011-PB) containing 10% FBS, 1% sodium pyruvate (JT Baker 3354-04), and 1% penicillin-streptomycin. Human melanoma cancer cells (A375P F11s) were cultured in RPMI (Mediatech 50-020-PB) containing 10% FBS, 1% sodium pyruvate, and 1% penicillin-streptomycin. Human colon cancer cells (HT-29) were cultured in high glucose DMEM (Mediatech 50-013-PB) containing 10% FBS and 1% penicillin-streptomycin. Human melanoma cancer cells (SK-MEL-3) were cultured in McCoy's 5A (50-025-PB) containing 15% FBS, and 1% penicillin-streptomycin. All cell lines were maintained at 37° C. in a humidified 5% CO2, 95% air incubator. Cells were harvested using trypsin/EDTA (Invitrogen 25200), counted using a haemocytometer, and plated. For 96-well assays (using white full-area NUNC plates cat. #136102), cells were plated in 105 μL at the following densities (cells/well): HNS, 500; Colo 205, 500; SK-MEL-28, 500; A375P F11s, 500; HT-29, 500; SK-MEL-3, 500; and BT474, 3000. For 384-well assays (white full-area NUNC plates, cat. #781080), cells were plated in 48 μL at the following densities (cells/well): HNS, 500; Colo205, 500; SK-MEL-28, 500; A375P F11s, 500; HT-29, 500; SK-MEL-3, 500; and BT474, 2000.
(§2) The next day, compounds were diluted as follow: For 96-well assays, 13.5 μL of compound in DMSO were diluted using nine (9) serial 1:3 dilutions of 4.5 μL in 9 of DMSO. Medium (270 μL/well of RPMI with 10% FBS and 1% penicillin-streptomycin) was added to the plates. Aliquots (7 μL) were added to cells in the final assay giving a final DMSO concentration of 0.2%. For 384-well assays, 15 μL of compound in DMSO were diluted using nine (9) serial 1:3 dilutions of 5 μL in 10 μL of DMSO, followed by a further dilution of 5 μL of compound with 95 μL of medium, of which 2 μL were added to cells in the final assay giving a final DMSO concentration of 0.2%. Cells were incubated at 37° C., 5% CO2 for 3 days.
(§3) Total ATP was measured (as a surrogate estimate of cell number) using CellTiter-Glo® reagent (Promega G7571). Briefly, plates were removed from the incubator and allowed to equilibrate to room temperature for 30 minutes. CellTiter-Glo® (25 μL or 55 μL for 384-well or 96-well assays, respectively) reagent was added to each well and plates were shaken on an orbital plate shaker for 2 minutes. Plates were incubated without shaking for a further 30 minutes and read on an LJL Analyst GT reader in luminometer mode with an integration time of 0.5 seconds per well. Percent inhibition of cell growth was calculated relative to DMSO vehicle-treated control wells. Concentration of compound required to give 50% inhibition of vehicle-treated control cell growth (IC50) was interpolated using a 4-parameter fit for determining IC50 using the following equation: Y=A +((B−A)/(1+((C/X)̂D))) where […].

HN5 tumor cells = experiment: Cell growth inhibition assay (CellTiter-Glo), HN5; format: cell-based, Human; details: 3 days incubation
Description: as §1, §2, §3

EGFR = target: T1, EGFR (Homo sapiens, UniProt P00533); experiment: EGFR substrate phosphorylation assay (HTRF); format: biochemical
T1 construct: made in house; host or cells: baculovirus expression system
T1 sequence (P00533 25-1210): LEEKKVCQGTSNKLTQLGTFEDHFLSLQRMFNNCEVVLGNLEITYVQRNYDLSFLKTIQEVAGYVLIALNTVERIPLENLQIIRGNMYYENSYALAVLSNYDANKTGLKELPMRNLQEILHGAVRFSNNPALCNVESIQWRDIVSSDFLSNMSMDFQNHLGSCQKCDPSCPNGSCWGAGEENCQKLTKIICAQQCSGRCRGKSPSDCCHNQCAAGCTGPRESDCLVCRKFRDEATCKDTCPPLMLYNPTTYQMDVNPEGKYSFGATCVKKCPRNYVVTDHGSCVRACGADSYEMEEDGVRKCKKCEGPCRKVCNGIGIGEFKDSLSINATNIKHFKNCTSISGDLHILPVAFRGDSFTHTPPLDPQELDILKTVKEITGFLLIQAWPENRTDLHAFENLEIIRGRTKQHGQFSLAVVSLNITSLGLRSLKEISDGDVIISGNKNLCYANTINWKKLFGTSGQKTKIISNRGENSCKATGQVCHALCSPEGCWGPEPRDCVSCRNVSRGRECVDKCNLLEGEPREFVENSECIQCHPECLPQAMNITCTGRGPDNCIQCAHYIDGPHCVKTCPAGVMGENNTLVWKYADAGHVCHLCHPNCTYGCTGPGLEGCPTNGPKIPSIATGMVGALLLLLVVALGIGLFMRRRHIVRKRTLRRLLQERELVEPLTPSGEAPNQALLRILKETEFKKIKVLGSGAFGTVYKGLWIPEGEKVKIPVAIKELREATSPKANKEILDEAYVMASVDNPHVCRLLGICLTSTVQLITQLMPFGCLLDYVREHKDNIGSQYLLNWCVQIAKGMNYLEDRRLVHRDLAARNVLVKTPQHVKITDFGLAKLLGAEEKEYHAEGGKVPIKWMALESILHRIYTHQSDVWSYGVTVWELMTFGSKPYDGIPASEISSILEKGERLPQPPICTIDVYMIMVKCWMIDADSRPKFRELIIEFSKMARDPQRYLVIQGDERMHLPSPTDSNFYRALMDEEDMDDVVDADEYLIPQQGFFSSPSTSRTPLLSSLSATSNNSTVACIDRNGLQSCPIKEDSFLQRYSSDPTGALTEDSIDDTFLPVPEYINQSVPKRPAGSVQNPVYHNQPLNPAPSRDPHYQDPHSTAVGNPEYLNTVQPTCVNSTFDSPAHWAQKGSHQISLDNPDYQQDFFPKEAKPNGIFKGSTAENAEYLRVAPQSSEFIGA
In short: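 Baculovirus-expressed EGFR (0.8 nM) or ErbB2 (10 nM) in enzyme mix, preincubated 1 h at 20 °C with compound (0.00027–47.6 μM final), then 90 min at 20 °C with substrate mix of 20 μM ATP, 0.8 uM biotinylated Peptide C, MnCl2, MOPS pH 7.5. Phosphotyrosine by HTRF; pIC50 reported.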

SK-MEL-3 tumor cells = experiment: Cell growth inhibition assay (CellTiter-Glo), SK-MEL-3; format: cell-based, Human; details: for IC50: Homo sapiens, SK-MEL3
Description: as §1, §2, §3

SMILES | IC50 (BT474 tumor cells; Homo sapiens, BT-474, 72 h) [µM] | IC50 (HN5 tumor cells; Homo sapiens, 72 h) [µM] | IC50 (EGFR) [µM] | IC50 (SK-MEL-3 tumor cells) [µM] | Activity in SK-MEL-3 Tumor Cells (SK-MEL-3 tumor cells) | IC50 (BT474 tumor cells) [µM] | EGFR Activity (EGFR) | IC50 (HN5 tumor cells) [µM]
CCNc1nc(-c2cccc(NS(=O)(=O)c3c(F)cccc3F)c2)c(-c2ccnc(Nc3ccc(N4CCOCC4)nc3)n2)s1 [Example 152] | 0.1 to 1 | 0.1 to 1 | 0.1 to 1 | < 0.1 | – | – | – | –
CC(=O)N1CCN(c2ccc(Nc3nccc(-c4sc(C(C)C)nc4-c4cccc(NS(=O)(=O)c5cccc(C(F)(F)F)c5)c4)n3)cn2)CC1 [Example 70] | > 1 | > 1 | > 1 | 0.1 to 1 | – | – | – | –
Cc1nc(Cl)sc1S(=O)(=O)Nc1cccc(-c2nc(C(C)C)sc2-c2ccnc(Nc3ccc(N4CCOCC4)nc3)n2)c1 [Example 42] | > 1 | < 0.1 | > 1 | < 0.1 | – | – | – | –
CC(C)(C)c1nc(-c2ccc(F)c(NS(=O)(=O)c3c(F)cccc3F)c2)c(-c2ccnc(Nc3ccc(N4CCOCC4)nc3)n2)s1 [Example 28, N-{5-[2-(1,1-Dimethylethyl)-5-(2-{[[6-(4-morpholinyl)-3-pyridinyl]amino}-4-pyrimidinyl)-1,3-thiazol-4-yl]-2-fluorophenyl]-2,6-difluorobenzenesulfonamide hydrochloride] | > 1 | > 1 | > 1 | < 0.1 | – | – | – | –
Nc1nc(-c2cccc(NS(=O)(=O)c3c(F)cccc3F)c2)c(-c2ccnc(Nc3ccc(N4CCOCC4)nc3)n2)s1 [Example 62] | > 1 | 0.1 to 1 | 0.1 to 1 | < 0.1 | – | – | – | –
O=S(=O)(Nc1cc(-c2nc(N3CCOCC3)sc2-c2ccnc(Nc3ccc4c(c3)OCCO4)n2)ccc1F)c1c(F)cccc1F [Example 127] | > 1 | > 1 | 0.1 to 1 | – | + (activity of >1 μM in SK-MEL-3 tumor cells) | – | – | –
CCNc1nc(-c2cccc(NS(=O)(=O)c3ccccc3)c2)c(-c2ccnc(Nc3ccc(OCCN4CCCC4)c(F)c3)n2)s1 [Example 65] | – | 0.1 to 1 | – | 0.1 to 1 | – | > 1 | +++ (at least one pIC50 measurement of greater than 7 against EGFR) | –
CC(C)c1nc(-c2ccc(F)c(NS(=O)(=O)c3c(F)cccc3F)c2)c(-c2ccnc(Nc3ccnc(N4CCOCC4)c3)n2)s1 [Example 117] | > 1 | 0.1 to 1 | 0.1 to 1 | 0.1 to 1 | – | – | – | –
CC(C)c1nc(-c2ccnc(NS(=O)(=O)c3c(F)cccc3F)c2)c(-c2ccnc(Nc3ccc(N4CCN(CCF)CC4)c(F)c3)n2)s1 [Example 100] | > 1 | < 0.1 | > 1 | < 0.1 | – | – | – | –
CC(C)c1nc(-c2ccc(F)c(NS(=O)(=O)c3c(F)cccc3F)c2)c(-c2ccnc(Nc3ccc(N4CCOCC4)nc3)n2)s1 [Example 23, 2,6-Difluoro-N-{2-fluoro-5-[2-(1-methylethyl)-5-(2-{[6-(4-morpholinyl)-3-pyridinyl]amino}-4-pyrimidinyl)-1,3-thiazol-4-yl]phenyl}benzenesulfonamide] | > 1 | > 1 | 0.1 to 1 | < 0.1 | – | – | – | –
O=S(=O)(Nc1cccc(-c2nc(N3CCOCC3)sc2-c2ccnc(Nc3ccc(N4CCOCC4)nc3)n2)c1Cl)c1c(F)cccc1F [Example 146] | > 1 | < 0.1 | > 1 | < 0.1 | – | – | – | –
CC(=O)N1CCN(c2ccc(Nc3nccc(-c4sc(C(C)C)nc4-c4cccc(NS(=O)(=O)c5ccc(F)cc5)c4)n3)cn2)CC1 [Example 10, N-{3-[5-(2-{[6-(4-Acetyl-1-piperazinyl)-3-pyridinyl]amino}-4-pyrimidinyl)-2-(1-methylethyl)-1,3-thiazol-4-yl]phenyl}-4-fluorobenzenesulfonamide] | > 1 | > 1 | > 1 | 0.1 to 1 | – | – | – | –
CN(C)c1nc(-c2ccc(F)c(NS(=O)(=O)c3c(F)cccc3F)c2)c(-c2ccnc(Nc3ccc(N4CCN(S(C)(=O)=O)CC4)nc3)n2)s1 [Example 112] | > 1 | > 1 | 0.1 to 1 | 0.1 to 1 | – | – | – | –
Cc1cc(Nc2nccc(-c3sc(C(C)(C)C)nc3-c3cccc(NS(=O)(=O)c4c(F)cccc4F)c3F)n2)ccn1 [Example 159] | > 1 | < 0.1 | > 1 | < 0.1 | – | – | – | –
CC(=O)N1CCN(c2ccc(Nc3nccc(-c4sc(C(C)C)nc4-c4cccc(NS(=O)(=O)c5cccc(F)c5)c4)n3)cn2)CC1 [Example 11, N-{3-[5-(2-{[6-(4-Acetyl-1-piperazinyl)-3-pyridinyl]amino}-4-pyrimidinyl)-2-(1-methylethyl)-1,3-thiazol-4-yl]phenyl}-3-fluorobenzenesulfonamide] | > 1 | > 1 | 0.1 to 1 | < 0.1 | – | – | – | –
CCNc1nc(-c2cccc(NS(=O)(=O)c3ccccc3)c2)c(-c2ccnc(Nc3ccc(OCCN4CCCC4)c(F)c3)n2)s1 [Example 1, N-(3-(2-(Ethylamino)-5-{2-[(3-fluoro-4-[[2-(1-pyrrolidinyl)ethyl]oxy}phenyl)amino]-4-pyrimidinyl}-1,3-thiazol-4-yl)phenyl]benzenesulfonamide] | – | – | < 0.1 | – | ++ (activity of between 100 nM and 1 μM in SK-MEL-3 tumor cells) | 0.1 to 1 | – | 0.1 to 1
CC(C)c1nc(-c2cccc(NS(=O)(=O)c3c(F)cccc3F)c2)c(-c2ccnc(Nc3ccc(N4CCOCC4)nc3)n2)s1 [Example 17, 2,6-Difluoro-N-{3-[2-(1-methylethyl)-5-(2-{[6-(4-morpholinyl)-3-pyridinyl]amino}-4-pyrimidinyl)-1,3-thiazol-4-yl]phenyl}benzenesulfonamide] | > 1 | 0.1 to 1 | 0.1 to 1 | < 0.1 | – | – | – | –
CN1CCC(c2nc(-c3ccc(F)c(NS(=O)(=O)c4c(F)cccc4F)c3)c(-c3ccnc(Nc4ccc(N5CCOCC5)nc4)n3)s2)CC1 [Example 106] | > 1 | 0.1 to 1 | 0.1 to 1 | < 0.1 | – | – | – | –
COc1cc(N2CCN(CCS(C)(=O)=O)CC2)c(C)cc1Nc1nccc(-c2sc(C(C)C)nc2-c2cccc(NS(=O)(=O)c3c(F)cccc3F)c2)n1 [Example 19] | > 1 | > 1 | < 0.1 | 0.1 to 1 | – | – | – | –
CS(=O)(=O)c1cccc(Nc2nccc(-c3sc(N4CCOCC4)nc3-c3cccc(NS(=O)(=O)c4c(F)cccc4F)c3F)n2)c1 [Example 130] | > 1 | 0.1 to 1 | > 1 | < 0.1 | – | – | – | –
CCOc1ccc(Nc2nccc(-c3sc(N4CCCC4)nc3-c3cccc(NS(=O)(=O)c4c(F)cccc4F)c3)n2)cc1N1CCN(CCS(C)(=O)=O)CC1 [Example 109] | 0.1 to 1 | > 1 | < 0.1 | < 0.1 | – | – | – | –
CC(C)c1nc(-c2cccc(NS(=O)(=O)c3cccnc3)c2)c(-c2ccnc(Nc3ccc(N4CCOCC4)nc3)n2)s1 [Example 52] | > 1 | 0.1 to 1 | 0.1 to 1 | < 0.1 | – | – | – | –
CS(=O)(=O)CCN1CCN(c2ccc(Nc3nccc(-c4oc(N5CCCC5)nc4-c4ccc(F)c(NS(=O)(=O)c5c(F)cccc5F)c4)n3)cc2F)CC1 [Example 119] | > 1 | > 1 | > 1 | – | – | – | – | –
